Experimental data taken from patent publication US20030004172A1, “Fused pyrimidinone matrix metalloproteinase inhibitors” (priority 2001, published 2003).

Target: MMP-13CD (catalytic domain of collagenase-3) (Homo sapiens, UniProt P45452)
Assay: Thiopeptolide substrate hydrolysis inhibition assay, MMP-13CD
Type: biochemical
Details: Table I; thiopeptolide substrate, HEPES pH 7.0, 22° C.; read-out: MMP-13CD IC50
Text: Thiopeptolide substrates show virtually no decomposition or hydrolysis at or below neutral pH in the absence of a matrix metalloproteinase enzyme.

**Q.** For `COCN1C(=O)c2ccc(Cn3c(=O)c4cc(C(=O)NCc5ccc(OC)cc5)sc4n(C)c3=O)cc2S1(=O)=O` [Example 229, 3-(2-Methoxymethyl-1,1,3-trioxo-2,3-dihydro-1H-1l^6l-1,2-benzisothiazol-6-ylmethyl)-1-methyl-2,4-dioxo-1,2,3,4-tetrahydro-thieno[2,3-d]pyrimidine-6-carboxylic acid 4-methoxy-benzylamide], which IC50 is on record?
**A.** 680 nM

**Q.** `CCCCCC#CCn1c(=O)c2cc(C(=O)NCc3ccc(OC)cc3)sc2n(C)c1=O` [Example 230, 1-Methyl-3-oct-2-ynyl-2,4-dioxo-1,2,3,4-tetrahydro-thieno[2,3-d]pyrimidine-6-carboxylic acid 4-methoxy-benzylamide] was tested. Which IC50 did it give?
**A.** 77 nM

**Q.** `COc1ccc(CNC(=O)c2cc3c(=O)n(CCNS(=O)(=O)c4ccc(Cl)cc4)c(=O)n(C)c3s2)cc1` [Example 231, 3-[2-(4-Chloro-benzenesulfonylamino)-ethyl]-1-methyl-2,4-dioxo-1,2,3,4-tetrahydro-thieno[2,3-d]pyrimidine-6-carboxylic acid 4-methoxy-benzylamide] was tested. Which IC50 did it give?
**A.** 2900 nM

**Q.** `COc1cccc(CNC(=O)c2cc3c(=O)n(CCOc4ccc(Br)cc4)c(=O)n(C)c3s2)c1` [Example 233, 3-[2-(4-Bromo-phenoxy)-ethyl]-1-methyl-2,4-dioxo-1,2,3,4-tetrahydro-thieno[2,3-d]pyrimidine-6-carboxylic acid 3-methoxy-benzylamide] was tested. Which IC50 did it give?
**A.** 69 nM

**Q.** With `COc1ccc(CNC(=O)c2cc3c(=O)n(CCOc4ccc(F)cc4)c(=O)n(C)c3s2)cc1` [Example 234, 3-[2-(4-Fluoro-phenoxy)-ethyl]-1-methyl-2,4-dioxo-1,2,3,4-tetrahydro-thieno[2,3-d]pyrimidine-6-carboxylic acid 4-methoxy-benzylamide] as the molecule, how does the IC50 read?
**A.** 150 nM

**Q.** `COc1ccc(CNC(=O)c2cc3c(=O)n(CCN)c(=O)n(C)c3s2)cc1` [Example 235, 3-(2-aminoethyl)-1-methyl-2,4-dioxo-1,2,3,4-tetrahydro-thieno[2,3-d]pyrimidine-6-carboxylic acid 4-methoxy-benzylamide] was tested. Which IC50 did it give?
**A.** 18000 nM

**Q.** With `COc1cccc(CNC(=O)c2cc3c(=O)n(CCOc4ccc(F)cc4)c(=O)n(C)c3s2)c1` [Example 236, 3-[2-(4-fluoro-phenoxy)-ethyl]-1-methyl-2,4-dioxo-1,2,3,4-tetrahydro-thieno[2,3-d]pyrimidine-6-carboxylic acid 3-methoxy-benzylamide] as the molecule, how does the IC50 read?
**A.** 49.5 nM

**Q.** For `COc1cccc(CNC(=O)c2cc3c(=O)n(CCOc4ccc(Cl)cc4)c(=O)n(C)c3s2)c1` [Example 237, 3-[2-(4-chloro-phenoxy)-ethyl]-1-methyl-2,4-dioxo-1,2,3,4-tetrahydro-thieno[2,3-d]pyrimidine-6-carboxylic acid 3-methoxy-benzylamide], which IC50 is on record?
**A.** 92.5 nM

**Q.** Which IC50 does the source give for `COC(=O)c1ccc(Cn2c(=O)c3cc(C(=O)NCc4ccc(OC)cc4)sc3n(C)c2=O)cc1C` [Example 238, 4-[6-(4-Methoxy-benzylcarbamoyl)-1-methyl-2,4-dioxo-1,4-dihydro-2H-thieno[2,3-d]pyrimidin-3-ylmethyl]-2-methyl-benzoic acid methyl ester] here?
**A.** 55.5 nM

**Q.** For `COC(=O)c1ccc(Cn2c(=O)c3cc(C(=O)NCc4ccc(OC)cc4)sc3n(C)c2=O)cc1` [Example 239, 4-[6-(4-Methoxy-benzylcarbamoyl)-1-methyl-2,4-dioxo-1,4-dihydro-2H-thieno[2,3-d]pyrimidin-3-ylmethyl]-benzoic acid methyl ester], which IC50 is on record?
**A.** 58.5 nM

**Q.** For `COC(=O)c1ccc(Cn2c(=O)c3cc(C(=O)NCc4cccc(OC)c4)sc3n(C)c2=O)cc1OC` [Example 240, 2-Methoxy-4-[6-(3-methoxy-benzylcarbamoyl)-1-methyl-2,4-dioxo-1,4-dihydro-2H-thieno[2,3-d]pyrimidin-3-ylmethyl]-benzoic acid methyl ester], which IC50 is on record?
**A.** 180 nM

**Q.** With `COC(=O)c1ccc(Cn2c(=O)c3cc(C(=O)NCc4cccc(OC)c4)sc3n(C)c2=O)cc1C` [Example 241, 4-[6-(3-Methoxy-benzylcarbamoyl)-1-methyl-2,4-dioxo-1,4-dihydro-2H-thieno[2,3-d]pyrimidin-3-ylmethyl]-2-methyl-benzoic acid methyl ester] as the molecule, how does the IC50 read?
**A.** 19.5 nM

**Q.** For `COc1ccc(CNC(=O)c2cc3c(=O)n(CCC(=O)c4ccccc4)c(=O)n(C)c3s2)cc1` [Example 242, 1-Methyl-2,4-dioxo-3-(3-oxo-3-phenyl-propyl)-1,2,3,4-tetrahydro-thieno[2,3-d]pyrimidine-6-carboxylic acid 4-methoxy-benzylamide], which IC50 is on record?
**A.** 3000 nM

**Q.** With `COc1cccc(CNC(=O)c2cc3c(=O)n(CCC(=O)c4ccccc4)c(=O)n(C)c3s2)c1` [Example 243, 1-Methyl-2,4-dioxo-3-(3-oxo-3-phenyl-propyl)-1,2,3,4-tetrahydro-thieno[2,3-d]pyrimidine-6-carboxylic acid 3-methoxy-benzylamide] as the molecule, how does the IC50 read?
**A.** 1400 nM

**Q.** How did the IC50 turn out when `COc1cccc(CNC(=O)c2cc3c(=O)n(CCS(=O)(=O)c4cccc(C(F)(F)F)c4)c(=O)n(C)c3s2)c1` [Example 244, 1-Methyl-2,4-dioxo-3-[2-(3-trifluoromethyl-benzenesulfonyl)-ethyl]-1,2,3,4-tetrahydro-thieno[2,3-d]pyrimidine-6-carboxylic acid 3-methoxy-benzylamide] was run?
**A.** 1250 nM

**Q.** For `COc1ccc(CNC(=O)c2cc3c(=O)n(CCS(=O)(=O)c4cccc(C(F)(F)F)c4)c(=O)n(C)c3s2)cc1` [Example 245, 1-Methyl-2,4-dioxo-3-[2-(3-trifluoromethyl-benzenesulfonyl)-ethyl]-1,2,3,4-tetrahydro-thieno[2,3-d]pyrimidine-6-carboxylic acid 4-methoxy-benzylamide], which IC50 is on record?
**A.** 30000 nM

**Q.** With `COc1ccc(CNC(=O)c2cc3c(=O)n(CCS(=O)(=O)c4ccc(Cl)cc4)c(=O)n(C)c3s2)cc1` [Example 247, 3-[2-(4-Chloro-benzenesulfonyl)-ethyl]-1-methyl-2,4-dioxo-1,2,3,4-tetrahydro-thieno[2,3-d]pyrimidine-6-carboxylic acid 4-methoxy-benzylamide] as the molecule, how does the IC50 read?
**A.** 7200 nM

**Q.** `Cc1cc(Cn2c(=O)c3cc(C(N)=O)sc3n(C)c2=O)ccc1C(=O)O` [Example 249] was tested. Which IC50 did it give?
**A.** 7800 nM

**Q.** `Cc1cc(Cn2c(=O)c3cc(C(=O)NCc4cccc(O)c4)sc3n(C)c2=O)ccc1C(=O)O` [Example 250, 4-[6-(3-hydroxy-benzylcarbamoyl)-1-methyl-2,4-dioxo-1,4-dihydro-2H-thieno[2,3-d]pyrimidin-3-ylmethyl]-2-methyl-benzoic acid] was tested. Which IC50 did it give?
**A.** 7.65 nM

**Q.** `Cn1c(=O)n(Cc2ccc(C(=O)O)c(O)c2)c(=O)c2cc(C(N)=O)sc21` [Example 251] was tested. Which IC50 did it give?
**A.** 655 nM

**Q.** Which IC50 does the source give for `COc1cccc(CNC(=O)c2cc3c(=O)n(CCN)c(=O)n(C)c3s2)c1` [Example 252, 3-(2-Aminoethyl)-1-methyl-2,4-dioxo-1,2,3,4-tetrahydro-thieno[2,3-d]pyrimidine-6-carboxylic acid 3-methoxy-benzylamide] here?
**A.** 24000 nM

**Q.** With `COc1ccc(CNC(=O)c2cc3c(=O)n(C(C)c4ccccc4)c(=O)n(C)c3s2)cc1` (stereo not shown) [Example 253] as the molecule, how does the IC50 read?
**A.** 810 nM

**Q.** `COc1ccc(CNC(=O)c2cc3c(=O)n(CCC(=O)c4ccccc4)c(=O)n(C)c3s2)cc1` [Example 254] was tested. Which IC50 did it give?
**A.** 1500 nM

**Q.** With `COc1ccc(CNC(=O)c2cc3c(=O)n(CC[C@@H](C)CCC=C(C)C)c(=O)n(C)c3s2)cc1` [Example 255] as the molecule, how does the IC50 read?
**A.** 14000 nM

**Q.** How did the IC50 turn out when `CCCCC(CC)Cn1c(=O)c2cc(C(=O)NCc3ccc(OC)cc3)sc2n(C)c1=O` (stereo not shown) [Example 256] was run?
**A.** 27500 nM

**Q.** For `COc1ccc(CNC(=O)c2cc3c(=O)n(CCCCCC#N)c(=O)n(C)c3s2)cc1` [Example 257], which IC50 is on record?
**A.** 1500 nM

**Q.** `C/C=C/Cn1c(=O)c2cc(C(=O)NCc3ccc(OC)cc3)sc2n(C)c1=O` [Example 258] was tested. Which IC50 did it give?
**A.** 270 nM

**Q.** For `COc1ccc(CNC(=O)c2cc3c(=O)n(CCc4cccc5ccccc45)c(=O)n(C)c3s2)cc1` [Example 259], which IC50 is on record?
**A.** 30000 nM

**Q.** For `CC/C=C/Cn1c(=O)c2cc(C(=O)NCc3ccc(OC)cc3)sc2n(C)c1=O` [Example 260], which IC50 is on record?
**A.** 63 nM

**Q.** Which IC50 does the source give for `COc1ccc(CNC(=O)c2cc3c(=O)n(CCSc4ccccc4)c(=O)n(C)c3s2)cc1` [Example 261] here?
**A.** 580 nM

**Q.** For `CCC(C)n1c(=O)c2cc(C(=O)NCc3ccc(OC)cc3)sc2n(C)c1=O` (stereo not shown) [Example 262], which IC50 is on record?
**A.** 3400 nM

**Q.** For `C=C(C)Cn1c(=O)c2cc(C(=O)NCc3ccc(OC)cc3)sc2n(C)c1=O` [Example 263], which IC50 is on record?
**A.** 2150 nM

**Q.** `CCC(CC)n1c(=O)c2cc(C(=O)NCc3ccc(OC)cc3)sc2n(C)c1=O` [Example 264] was tested. Which IC50 did it give?
**A.** 7400 nM

**Q.** `CCC#CCn1c(=O)c2cc(C(=O)NCc3ccc(OC)cc3)sc2n(C)c1=O` [Example 265] was tested. Which IC50 did it give?
**A.** 38 nM

**Q.** How did the IC50 turn out when `COc1ccc(CNC(=O)c2cc3c(=O)n(CCS(=O)(=O)c4ccccc4)c(=O)n(C)c3s2)cc1` [Example 266] was run?
**A.** 4000 nM

**Q.** How did the IC50 turn out when `COc1ccc(CNC(=O)c2cc3c(=O)n(CC=C(C)C)c(=O)n(C)c3s2)cc1` [Example 267] was run?
**A.** 1100 nM

**Q.** With `COc1ccc(CNC(=O)c2cc3c(=O)n(CCS(=O)(=O)c4ccc(F)cc4)c(=O)n(C)c3s2)cc1` [Example 268] as the molecule, how does the IC50 read?
**A.** 3600 nM

**Q.** With `COc1ccc(CNC(=O)c2cc3c(=O)n(CCS(=O)(=O)c4ccc(C)cc4)c(=O)n(C)c3s2)cc1` [Example 269] as the molecule, how does the IC50 read?
**A.** 26000 nM

**Q.** Which IC50 does the source give for `COc1ccc(CNC(=O)c2cc3c(=O)n(CCC(=O)c4ccc(F)cc4)c(=O)n(C)c3s2)cc1` [Example 270] here?
**A.** 1800 nM

**Q.** For `COc1ccc(CNC(=O)c2cc3c(=O)n(CCC(=O)c4ccc(Cl)cc4)c(=O)n(C)c3s2)cc1` [Example 271], which IC50 is on record?
**A.** 5900 nM

**Q.** For `COc1ccc(CNC(=O)c2cc3c(=O)n(CCNC(=O)c4ccccc4)c(=O)n(C)c3s2)cc1` [Example 272], which IC50 is on record?
**A.** 30000 nM

**Q.** For `COc1ccc(CNC(=O)c2cc3c(=O)n(CCOc4ccc(Br)cc4)c(=O)n(C)c3s2)cc1` [Example 273], which IC50 is on record?
**A.** 59 nM

**Q.** `COc1ccc(CNC(=O)c2cc3c(=O)n(Cc4ccc5nonc5c4)c(=O)n(C)c3s2)cc1` [Example 274] was tested. Which IC50 did it give?
**A.** 18 nM

**Q.** How did the IC50 turn out when `COc1ccc(CNC(=O)c2cc3c(=O)n(CCOc4ccccc4)c(=O)n(C)c3s2)cc1` [Example 275] was run?
**A.** 36 nM

**Q.** Which IC50 does the source give for `COC(=O)Nc1cc(Cn2c(=O)c3cc(C(=O)NCc4ccc(OC)cc4)sc3n(C)c2=O)on1` [Example 276] here?
**A.** 230 nM

**Q.** With `COc1ccc(CNC(=O)c2cc3c(=O)n(CC(=O)C(CC(=O)OC(C)(C)C)NC(=O)OCc4ccccc4)c(=O)n(C)c3s2)cc1` (stereo not shown) [Example 277] as the molecule, how does the IC50 read?
**A.** 20000 nM
